Experimental data from US20110039879A1, “METHODS FOR INCREASING WHITE BLOOD CELLS” (FibroGen ,Inc., priority 2007, published 2011).

How the values were obtained:
Assay type in all cases: in vivo, Swiss-Webster mice
[1] = system: lymphocytes; assay: Lymphocytes by complete blood count on day 8, dosing day 1, 3, 5; details: mice, oral gavage, 6 mg/kg on day 1, day 3 and day 5, measured on day 8; for change in vivo at 6 mg/kg: Mus musculus, Lymphocyte, 192 h, read-out: Lymphocytes % Increase Over Control
Protocol: (§1) To examine the effect of compounds and methods of the present invention on increasing white blood cells, the following studies were performed. In one series of experiments, male Swiss-Webster mice were administered various compounds of the present invention via oral gavage using a ball-tipped gavage needle. […] Animals were dosed once daily for 3 or 4 days. Six hours after the final dosing, 200 μl blood samples were collected and total white blood cell, neutrophil, and lymphocyte levels were measured by complete blood count (CBC) using a CellDyn cell analyzer (Abbott Laboratories).
(§2) In another series of experiments, male Swiss-Webster mice were administered various compounds (see Table 7 and Table 8) of the present invention via oral gavage using a ball-tipped gavage needle. […] Total WBC, neutrophil, lymphocyte, and monocyte levels were measured in mice as described above on day 8 following administration of compound on day 1, day 3, and day 5.

[2] = system: monocytes; assay: Monocytes by complete blood count on day 8, dosing day 1, 3, 5; details: mice, oral gavage, 6 mg/kg on day 1, day 3 and day 5; measured on day 8
[3] = system: total white blood cell (WBC); assay: Total white blood cells by complete blood count on day 8, dosing day 1, 3, 5; details: mice, oral gavage, measured on day 8
[4] = system: neutrophils; assay: Neutrophils by complete blood count on day 8, dosing day 1, 3, 5; details: mice, oral gavage, 6 mg/kg on day 1, day 3 and day 5, measured on day 8; for change in vivo at 6 mg/kg: Mus musculus, Neutrophil, 192 h, read-out: Neutrophils % Increase Over Control
[5] = system: total white blood cell (WBC); assay: Total white blood cells by complete blood count on day 8, dosing day 1, 3, 5; details: Mus musculus, 192 h, mice, oral gavage, measured on day 8, read-out: Total WBC % Increase Over Control; for change in vivo at 20 mg/kg: 20 mg/kg on day 1, day 3 and day 5; for change in vivo at 100 mg/kg: 100 mg/kg on day 1, day 3 and day 5; for change in vivo at 200 mg/kg: 200 mg/kg on day 1, day 3 and day 5
Protocol: as §1, §2

[6] = Mus musculus, 192 h, 6 mg/kg on day 1, day 3 and day 5, read-out: Total WBC % Increase Over Control
[7] = 6 mg/kg on day 1, day 3 and day 5
[8] = 20 mg/kg on day 1, day 3 and day 5
[9] = 100 mg/kg on day 1, day 3 and day 5
[10] = 200 mg/kg on day 1, day 3 and day 5
[11] = 60 mg/kg on day 1, day 3 and day 5

`Cc1nc(C(=O)NCC(=O)O)c(O)c2cccc(Oc3ccc(F)cc3)c12` [Compound AE, {[8-(4-Fluoro-phenoxy)-4-hydroxy-1-methyl-isoquinoline-3-carbonyl]-amino}-acetic acid] was tested, and the change in vivo at 6 mg/kg [1] was 105%, the Lymphocytes [1] was 11.0 10^3 cells/μl and the Monocytes [2] was 0.1 10^3 cells/μl. For the same molecule, the change in vivo at 6 mg/kg [3, 6] was 109%, the “Total WBC” value [3, 7] was 12.3 10^3 cells/μl and the change in vivo at 6 mg/kg [4] was 175%. For the same molecule, the Neutrophils [4] was 1.1 10^3 cells/μl.

With `O=C(O)CNC(=O)c1ncc2cc(Oc3ccc(F)cc3)ccc2c1O` [Compound U, {[7-(4-Fluoro-phenoxy)-4-hydroxy-isoquinoline-3-carbonyl]-amino}-acetic acid] the change in vivo at 6 mg/kg [3, 6] was 6% and the “Total WBC” value [3, 7] was 8.3 10^3 cells/μl.

For `N#Cc1nc(C(=O)NCC(=O)O)c(O)c2cc(Oc3ccccc3)ccc12` [Compound AG, [(1-Cyano-4-hydroxy-6-phenoxy-isoquinoline-3-carbonyl)-amino]-acetic acid], the change in vivo at 20 mg/kg [5] was 25% and the “Total WBC” value [3, 8] was 7.6 10^3 cells/μl.

For `CC(C)CCn1cc(Cl)c2c(O)c(C(=O)NCC(=O)O)nc(C#N)c21` [Compound AO, {[3-Chloro-7-cyano-4-hydroxy-1-(3-methyl-butyl)-1H-pyrrolo[2,3-c]pyridine-5-carbonyl]-amino}-acetic acid], the change in vivo at 100 mg/kg [5] was 47% and the “Total WBC” value [3, 9] was 10.5 10^3 cells/μl.

In the case of `N#Cc1nc(C(=O)NCC(=O)O)c(O)c2c(Cl)c(Cl)n(Cc3ccc(-c4ccccc4)cc3)c12` [Compound AV, [(1-Biphenyl-4-ylmethyl-2,3-dichloro-7-cyano-4-hydroxy-1H-pyrrolo[2,3-c]pyridine-5-carbonyl)-amino]-acetic acid], the change in vivo at 100 mg/kg [5] is reported as 137% and the “Total WBC” value [3, 9] is reported as 15.2 10^3 cells/μl.

For `N#Cc1nc(C(=O)NCC(=O)O)c(O)c2sccc12` [Compound AA, [(4-Cyano-7-hydroxy-thieno[3,2-c]pyridine-6-carbonyl)-amino]-acetic acid], the change in vivo at 2 mg/kg ([3]; Mus musculus, 192 h, 2 mg/kg on day 1, day 3 and day 5, read-out: Total WBC % Increase Over Control) was 20% and the “Total WBC” value ([3]; 2 mg/kg on day 1, day 3 and day 5) was 7.1 10^3 cells/μl.

For `O=C(O)CNC(=O)c1ncc2cc(Oc3ccc(F)c(Cl)c3)ccc2c1O` [Compound W, {[7-(3-Chloro-4-fluoro-phenoxy)-4-hydroxy-isoquinoline-3-carbonyl]-amino}-acetic acid], the change in vivo at 200 mg/kg [5] was 80% and the “Total WBC” value [3, 10] was 8.4 10^3 cells/μl.

In the case of `COc1ccc(Cn2c(Cl)c(Cl)c3c(O)c(C(=O)NCC(=O)O)nc(C#N)c32)cc1` [Compound AK, {[2,3-Dichloro-7-cyano-4-hydroxy-1-(4-methoxy-benzyl)-1H-pyrrolo[2,3-c]pyridine-5-carbonyl]-amino}-acetic acid], the change in vivo at 200 mg/kg [5] is reported as 105% and the “Total WBC” value [3, 10] is reported as 16.8 10^3 cells/μl.

In the case of `CC(C)Oc1ccc(Cn2cc(Cl)c3c(O)c(C(=O)NCC(=O)O)nc(C#N)c32)cc1` [Compound BC, {[3-Chloro-7-cyano-4-hydroxy-1-(4-isopropoxy-benzyl)-1H-pyrrolo[2,3-c]pyridine-5-carbonyl]-amino}-acetic acid], the change in vivo at 100 mg/kg [5] is reported as 148% and the “Total WBC” value [3, 9] is reported as 15.9 10^3 cells/μl.

`N#Cc1nc(C(=O)NCC(=O)O)c(O)c2c(Cl)cn(Cc3ccccc3F)c12` [Compound AN, {[3-Chloro-7-cyano-1-(2-fluoro-benzyl)-4-hydroxy-1H-pyrrolo[2,3-c]pyridine-5-carbonyl]-amino}-acetic acid] was tested, and the change in vivo at 200 mg/kg [5] was 179% and the “Total WBC” value [3, 10] was 23.2 10^3 cells/μl.

In the case of `N#Cc1nc(C(=O)NCC(=O)O)c(O)c2c(Oc3cccc(Cl)c3)cccc12` [Compound BB, {[5-(3-Chloro-phenoxy)-1-cyano-4-hydroxy-isoquinoline-3-carbonyl]-amino}-acetic acid], the change in vivo at 200 mg/kg [5] is reported as 227% and the “Total WBC” value [3, 10] is reported as 20.1 10^3 cells/μl.

With `CC(C)Oc1ccc(Cn2c(Cl)c(Cl)c3c(O)c(C(=O)NCC(=O)O)nc(C#N)c32)cc1` [Compound AX, {[2,3-Dichloro-7-cyano-4-hydroxy-1-(4-isopropoxy-benzyl)-1H-pyrrolo[2,3-c]pyridine-5-carbonyl]-amino}-acetic acid] the change in vivo at 100 mg/kg [5] was 81% and the “Total WBC” value [3, 9] was 12.8 10^3 cells/μl.

In the case of `COc1ccc(Cn2cc(Cl)c3c(O)c(C(=O)NCC(=O)O)nc(C#N)c32)cc1` [Compound AM, {[3-Chloro-7-cyano-4-hydroxy-1-(4-methoxy-benzyl)-1H-pyrrolo[2,3-c]pyridine-5-carbonyl]-amino}-acetic acid], the change in vivo at 200 mg/kg [5] is reported as 264% and the “Total WBC” value [3, 10] is reported as 23.3 10^3 cells/μl.

In the case of `N#Cc1nc(C(=O)NCC(=O)O)c(O)c2cccc(Oc3ccccc3)c12` [Compound AD, [(1-Cyano-4-hydroxy-8-phenoxy-isoquinoline-3-carbonyl)-amino]-acetic acid], the change in vivo at 200 mg/kg [5] is reported as 10% and the “Total WBC” value [3, 10] is reported as 7.6 10^3 cells/μl.

In the case of `O=C(O)CNC(=O)c1ncc2c(Oc3ccccc3)cccc2c1O` [Compound AB, [(4-Hydroxy-8-phenoxy-isoquinoline-3-carbonyl)-amino]-acetic acid], the change in vivo at 6 mg/kg [1] is reported as 42%, the Lymphocytes [1] is reported as 6.8 10^3 cells/μl and the Monocytes [2] is reported as 0.2 10^3 cells/μl. For the same molecule, the change in vivo at 6 mg/kg [3, 6] was 78%, the “Total WBC” value [3, 7] was 9.8 10^3 cells/μl and the change in vivo at 6 mg/kg [4] was 398%. For the same molecule, the Neutrophils [4] was 2.8 10^3 cells/μl.

For `N#Cc1nc(C(=O)NCC(=O)O)c(O)c2c(Cl)c(Cl)n(Cc3ccc4ccccc4c3)c12` [Compound AP, [(2,3-Dichloro-7-cyano-4-hydroxy-1-naphthalen-2-ylmethyl-1H-pyrrolo[2,3-c]pyridine-5-carbonyl)-amino]-acetic acid], the change in vivo at 100 mg/kg [5] was 88% and the “Total WBC” value [3, 9] was 10.8 10^3 cells/μl.

In the case of `N#Cc1nc(C(=O)NCC(=O)O)c(O)c2c(Oc3ccccc3)cccc12` [Compound AH, [(1-Cyano-4-hydroxy-5-phenoxy-isoquinoline-3-carbonyl)-amino]-acetic acid], the change in vivo at 200 mg/kg [5] is reported as 123% and the “Total WBC” value [3, 10] is reported as 9.4 10^3 cells/μl.

In the case of `N#Cc1nc(C(=O)NCC(=O)O)c(O)c2ccn(Cc3ccccc3)c12` [Compound AR, [(1-Benzyl-7-cyano-4-hydroxy-1H-pyrrolo[2,3-c]pyridine-5-carbonyl)-amino]-acetic acid], the change in vivo at 100 mg/kg [5] is reported as 71% and the “Total WBC” value [3, 9] is reported as 9.5 10^3 cells/μl.

In the case of `CC(C)Oc1ccc(Cn2c(Cl)c(Cl)c3c(O)c(C(=O)N[C@@H](C)C(=O)O)nc(C#N)c32)cc1` [Compound BD, (S)-2-{[2,3-Dichloro-7-cyano-4-hydroxy-1-(4-isopropoxy-benzyl)-1H-pyrrolo[2,3-c]pyridine-5-carbonyl]-amino}-propionic acid], the change in vivo at 200 mg/kg [5] is reported as 93% and the “Total WBC” value [3, 10] is reported as 14.1 10^3 cells/μl.

In the case of `CC(C)Oc1ccc(CN2C=CC3C(O)=C(C(=O)NCC(=O)O)N=C(C#N)C32)cc1` (centres unmarked) [Compound AZ, {[7-Cyano-4-hydroxy-1-(4-isopropoxy-benzyl)-3a,7a-dihydro-1H-pyrrolo[2,3-c]pyridine-5-carbonyl]-amino}-acetic acid], the change in vivo at 60 mg/kg [5, 11] is reported as 79% and the “Total WBC” value [3, 11] is reported as 11.6 10^3 cells/μl.

`COc1ccc(Cn2cc(Br)c3c(O)c(C(=O)NCC(=O)O)nc(C#N)c32)cc1` [Compound AJ, {[3-Bromo-7-cyano-4-hydroxy-1-(4-methoxy-benzyl)-1H-pyrrolo[2,3-c]pyridine-5-carbonyl]-amino}-acetic acid] was tested, and the change in vivo at 200 mg/kg [5] was 237% and the “Total WBC” value [3, 10] was 21.5 10^3 cells/μl.

For `N#Cc1nc(C(=O)NCC(=O)O)c(O)c2cc(C(F)(F)F)n(Cc3ccccc3F)c12` [Compound AQ, {[7-Cyano-1-(2-fluoro-benzyl)-4-hydroxy-2-trifluoromethyl-1H-pyrrolo[2,3-c]pyridine-5-carbonyl]-amino}-acetic acid], the change in vivo at 20 mg/kg [5] was 56% and the “Total WBC” value [3, 8] was 9.6 10^3 cells/μl.

With `N#Cc1nc(C(=O)NCC(=O)O)c(O)c2cccc(Oc3ccc(F)cc3)c12` [Compound AF, {[1-Cyano-8-(4-fluoro-phenoxy)-4-hydroxy-isoquinoline-3-carbonyl]-amino}-acetic acid] the change in vivo at 200 mg/kg [5] was 35% and the “Total WBC” value [3, 10] was 8.2 10^3 cells/μl.
